ChEMBL document CHEMBL4840323, “Discovery of an Orally Bioavailable Small-Molecule Inhibitor for the β-Catenin/B-Cell Lymphoma 9 Protein-Protein Interaction” (J Med Chem, 2021)

How the values were obtained:
[1] = target: T1, beta-catenin-B-cell lymphoma 9 protein complex (Homo sapiens, UniProt P35222); assay: Inhibition of C-terminal 6-His-tagged beta-catenin (1 to 781 residues) (unknown origin) expressed in Escherichia coli BL21 (DE3)-N-terminal biotinylated human BCL9 (350 to 375 residues) protein-protein interaction incubated for 1 hr by Alphascreen assay
T1 sequence (P35222 whole entry): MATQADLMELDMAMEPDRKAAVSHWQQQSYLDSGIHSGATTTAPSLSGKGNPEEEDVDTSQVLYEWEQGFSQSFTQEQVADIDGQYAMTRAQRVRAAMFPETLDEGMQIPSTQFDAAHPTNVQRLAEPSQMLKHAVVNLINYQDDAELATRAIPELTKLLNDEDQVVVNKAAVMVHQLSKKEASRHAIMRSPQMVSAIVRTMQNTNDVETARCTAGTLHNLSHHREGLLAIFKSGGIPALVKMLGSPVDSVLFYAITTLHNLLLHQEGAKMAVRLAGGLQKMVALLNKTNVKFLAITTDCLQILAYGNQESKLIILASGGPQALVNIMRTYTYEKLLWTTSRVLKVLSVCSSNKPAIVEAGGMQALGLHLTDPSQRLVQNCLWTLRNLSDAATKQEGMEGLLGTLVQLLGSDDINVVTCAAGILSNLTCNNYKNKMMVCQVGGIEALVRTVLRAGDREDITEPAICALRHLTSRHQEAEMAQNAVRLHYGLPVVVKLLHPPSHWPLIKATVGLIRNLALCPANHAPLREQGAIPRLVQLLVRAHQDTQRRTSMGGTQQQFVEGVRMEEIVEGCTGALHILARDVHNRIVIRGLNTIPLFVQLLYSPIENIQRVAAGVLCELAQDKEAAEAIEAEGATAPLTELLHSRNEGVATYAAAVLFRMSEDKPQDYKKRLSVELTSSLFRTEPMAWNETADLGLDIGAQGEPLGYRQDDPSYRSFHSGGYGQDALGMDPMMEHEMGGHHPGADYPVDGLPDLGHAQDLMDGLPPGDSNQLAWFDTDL
T1 sequence (O00512 whole entry): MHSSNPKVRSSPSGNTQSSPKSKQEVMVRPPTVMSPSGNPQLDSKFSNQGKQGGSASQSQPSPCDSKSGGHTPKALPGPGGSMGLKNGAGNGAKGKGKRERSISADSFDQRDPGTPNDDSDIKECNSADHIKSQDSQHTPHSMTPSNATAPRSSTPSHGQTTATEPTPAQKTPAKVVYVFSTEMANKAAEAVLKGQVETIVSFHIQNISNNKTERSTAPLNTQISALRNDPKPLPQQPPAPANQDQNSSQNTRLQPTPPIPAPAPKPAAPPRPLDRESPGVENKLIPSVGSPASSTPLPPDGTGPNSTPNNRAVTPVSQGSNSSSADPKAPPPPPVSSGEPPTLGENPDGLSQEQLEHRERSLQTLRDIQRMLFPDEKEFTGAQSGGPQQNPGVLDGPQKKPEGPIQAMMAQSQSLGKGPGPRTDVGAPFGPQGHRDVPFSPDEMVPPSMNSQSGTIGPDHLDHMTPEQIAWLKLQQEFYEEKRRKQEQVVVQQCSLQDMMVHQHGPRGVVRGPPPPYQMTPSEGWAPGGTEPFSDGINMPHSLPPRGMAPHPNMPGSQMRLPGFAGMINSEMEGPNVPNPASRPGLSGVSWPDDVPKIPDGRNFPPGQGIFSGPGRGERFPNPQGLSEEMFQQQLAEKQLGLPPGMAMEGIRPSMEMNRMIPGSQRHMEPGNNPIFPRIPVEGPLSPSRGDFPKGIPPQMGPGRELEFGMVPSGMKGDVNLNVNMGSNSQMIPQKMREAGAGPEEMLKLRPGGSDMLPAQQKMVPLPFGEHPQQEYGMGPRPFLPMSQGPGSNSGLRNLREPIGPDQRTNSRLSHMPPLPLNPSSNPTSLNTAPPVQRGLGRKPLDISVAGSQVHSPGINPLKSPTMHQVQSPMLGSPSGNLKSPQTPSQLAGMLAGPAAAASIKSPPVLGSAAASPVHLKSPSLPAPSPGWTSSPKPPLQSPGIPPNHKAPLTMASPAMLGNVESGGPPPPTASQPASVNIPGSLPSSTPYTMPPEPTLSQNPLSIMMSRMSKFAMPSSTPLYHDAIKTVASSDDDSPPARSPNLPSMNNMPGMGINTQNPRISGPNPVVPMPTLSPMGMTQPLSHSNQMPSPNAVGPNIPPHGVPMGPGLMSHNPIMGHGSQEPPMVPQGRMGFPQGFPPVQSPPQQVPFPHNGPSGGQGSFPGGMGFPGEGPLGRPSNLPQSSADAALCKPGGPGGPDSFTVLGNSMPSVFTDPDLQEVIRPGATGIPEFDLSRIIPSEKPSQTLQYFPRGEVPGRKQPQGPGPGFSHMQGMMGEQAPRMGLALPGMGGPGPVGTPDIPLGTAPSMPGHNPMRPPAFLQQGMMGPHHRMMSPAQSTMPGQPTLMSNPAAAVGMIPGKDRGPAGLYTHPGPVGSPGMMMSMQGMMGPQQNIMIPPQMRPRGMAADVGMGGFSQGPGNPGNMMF

Catenin beta-1 = target: T2, Catenin beta-1 (Homo sapiens, UniProt P35222); assay: Inhibition of beta-catenin (unknown origin) transfected in HEK293 cells cotransfected with pCMV-RL assessed as reduction in luciferase activity measured after 24 hrs by TOPFlash luciferase reporter assay; format: cell-based
T2 sequence (P35222 whole entry): T1 sequence (P35222 whole entry)

[2] = target: T1, beta-catenin-B-cell lymphoma 9 protein complex; assay: Inhibition of N-terminal 6-His-tagged beta-catenin (1 to 781 residues) (unknown origin) expressed in Escherichia coli BL21 (DE3)-N-terminal biotinylated human BCL9 (350 to 375 residues) protein-protein interaction incubated for 1 hr by Alphascreen assay
MDA-MB-231 = assay: cells; conditions: Homo sapiens, MDA-MB-231, 72 h
Description: Antiproliferative activity against human MDA-MB-231 cells assessed as cell growth inhibition measured after 72 hrs by MTS assay

MDA-MB-468 = assay: cells; conditions: Homo sapiens, MDA-MB-468, 72 h
Description: Antiproliferative activity against human MDA-MB-468 cells assessed as cell growth inhibition measured after 72 hrs by MTS assay

SW480 = assay: cells; conditions: Homo sapiens, SW480, 72 h
Description: Antiproliferative activity against human SW480 cells assessed as cell growth inhibition measured after 72 hrs by MTS assay

HCT-116 = assay: cells; conditions: Homo sapiens, HCT-116, 72 h
Description: Antiproliferative activity against human HCT-116 cells assessed as cell growth inhibition measured after 72 hrs by MTS assay

MCF-10A = assay: cells; conditions: Homo sapiens, 72 h
Description: Cytotoxicity against human MCF-10A cells assessed as cell growth inhibition measured after 72 hrs by MTS assay

[3] = Half life in human liver microsomes at 1 uM measured up to 60 mins in presence of NADPH by LC-MS/SM analysis; format: ADME, Microsome; conditions: 1 h
[4] = Half life in mouse liver microsomes at 1 uM measured up to 60 mins in presence of NADPH by LC-MS/SM analysis; format: ADME, Microsome; conditions: 1 h
[5] = Intrinsic clearance in human liver microsomes at 1 uM measured up to 60 mins in presence of NADPH by LC-MS/SM analysis; format: ADME, Microsome
[6] = Intrinsic clearance in mouse liver microsomes at 1 uM measured up to 60 mins in presence of NADPH by LC-MS/SM analysis; format: ADME, Microsome; conditions: 1 h

Row | Structure (SMILES) | IC50 [1] [µM] | Ki [2] [µM] | further results
1 | CN1CCN(C(=O)C(C)(C)Oc2cccc(N3CCC[C@@H](C(=O)N(Cc4ccc(-c5cn[nH]c5)cc4)C4CC4)C3)c2)CC1 | 39 | 32 | IC50 (Catenin beta-1): > 200 µM
2 | CC(C)(Oc1cccc(N2CCC[C@@H](C(=O)N(Cc3ccc(-c4ccccn4)cc3)C3CC3)C2)c1)C(=O)N1CCNCC1 | 59 | 54 | –
3 | CC(C)c1ccc(CNC(=O)[C@@H]2CCCN(c3cccc(OC(C)(C)C(=O)O)c3)C2)cc1 | 51 | 46 | –
4 | CC(C)c1ccc(CNC(=O)[C@H]2CCCN(c3cccc(OC(C)(C)C(=O)O)c3)C2)cc1 | > 100 | > 90 | –
5 | CC(C)(Oc1cccc(N2CCC[C@@H](C(=O)N(Cc3ccc(-c4ccncc4)cc3)C3CC3)C2)c1)C(=O)N1CCNCC1 | 82 | 74 | –
6 | O=C1[C@H](Cc2ccc(O)cc2)N2C(=O)CCN(C(=O)NCc3ccccc3)[C@H]2CN1Cc1cccc2ccccc12 | – | – | IC50 (MDA-MB-231): 7.2 µM; IC50 (MDA-MB-468): 31 µM; IC50 (SW480): 6.1 µM; IC50 (HCT-116): 38 µM; IC50 (MCF-10A): 21 µM
7 | CC(C)(Oc1cccc(N2CCC[C@@H](C(=O)N(Cc3ccc(-c4ccccc4)cc3)C3CC3)C2)c1)C(=O)N1CCNCC1 | 4.5 | 4 | –
8 | CC(C)(Oc1cccc(N2CCC[C@@H](C(=O)N(Cc3ccc(C(C)(C)C)cc3)C3CC3)C2)c1)C(=O)N1CCNCC1 | 14 | 13 | –
9 | Cn1cc(-c2ccc(CN(C(=O)[C@@H]3CCCN(c4cccc(OC(C)(C)C(=O)N5CCNCC5)c4)C3)C3CC3)cc2)cn1 | 76 | 68 | –
10 | CCN(Cc1ccc(-c2cn[nH]c2)cc1)C(=O)[C@@H]1CCCN(c2cccc(OC(C)(C)C(=O)N3CCNCC3)c2)C1.Cl | – | – | t1/2 [3]: 28.3 min; t1/2 [4]: 7.7 min; CLint at 1 h, 1 µM [5]: 24 µL/min/mg; CLint [6]: 90 µL/min/mg
11 | CCN(CC)CCNC(=O)c1c(C)[nH]c(/C=C2\C(=O)Nc3ccc(F)cc32)c1C [SUNITINIB] | – | – | t1/2 [4]: 13 min; CLint [6]: 53 µL/min/mg
12 | CCOCCN(Cc1ccc(-c2cn[nH]c2)cc1)C(=O)[C@@H]1CCCN(c2cccc(OC(C)(C)C(=O)N3CCNCC3)c2)C1 | 2.1 | 1.9 | –
13 | CC(C)c1ccc(CNC(=O)[C@@H]2CCCN(c3cccc(OC(C)(C)C(=O)N4CCNCC4)c3)C2)cc1 | 6.4 | 5.8 | –
14 | CCN(Cc1ccc(C(C)C)cc1)C(=O)[C@@H]1CCCN(c2cccc(OC(C)(C)C(=O)N3CCNCC3)c2)C1 | 12 | 11 | –
15 | CC(C)(Oc1cccc(N2CCC[C@@H](C(=O)N(Cc3ccc(-c4ccn[nH]4)cc3)C3CC3)C2)c1)C(=O)N1CCNCC1 | 8.9 | 8 | –
16 | CC(C)(Oc1cccc(N2CCC[C@@H](C(=O)N(Cc3ccc(-c4cccnc4)cc3)C3CC3)C2)c1)C(=O)N1CCNCC1 | 73 | 66 | –
17 | CC(C)(Oc1cccc(N2CCC[C@@H](C(=O)N(Cc3ccc(-c4cn[nH]c4)cc3)C3CC3)C2)c1)C(=O)N1CCCCC1 | 53 | 43 | –
18 | CC(C)c1ccc(CN(C(=O)[C@@H]2CCCN(c3cccc(OC(C)(C)C(=O)N4CCNCC4)c3)C2)C(C)C)cc1 | 5.1 | 4.6 | –
19 | CC(C)c1ccc(CN(C(=O)[C@@H]2CCCN(c3cccc(OC(C)(C)C(=O)N4CCNCC4)c3)C2)C2CC2)cc1 | 3 | 2.7 | –
20 | CC(C)c1ccc(CN(C)C(=O)[C@@H]2CCCN(c3cccc(OC(C)(C)C(=O)N4CCNCC4)c3)C2)cc1 | 15 | 14 | –
21 | CC(C)(Oc1cccc(N2CCC[C@@H](C(=O)N(Cc3ccc(-c4ccsc4)cc3)C3CC3)C2)c1)C(=O)N1CCNCC1 | 5.5 | 5 | –
22 | Cc1cc(-c2ncc(CC(=O)Nc3ccc(-c4cnccn4)cn3)cc2C)ccn1 [WNT-974] | – | – | IC50 (MDA-MB-231): > 100 µM; IC50 (MDA-MB-468): > 100 µM; IC50 (SW480): > 100 µM; IC50 (HCT-116): > 100 µM; IC50 (MCF-10A): > 100 µM
23 | CC(C)(Oc1cccc(N2CCC[C@@H](C(=O)N(Cc3ccc(C4CCCCC4)cc3)C3CC3)C2)c1)C(=O)N1CCNCC1 | 5.3 | 4.8 | –
